From patent US8486594B2, “P-terphenyl compound mixture and electrophotographic photoreceptors made by using the same” (Hodogaya Chemical Co., Ltd., priority 2006, dated 2013) come the findings set out here.

Data set [1] in a line: Solubility in organic solvent (tetrahydrofuran). It is filed as physicochemical. The following applies: 25° C. tetrahydrofuran; % (weight/volume). An excerpt: [Solubility in Organic Solvent]
The unit of solubility is % (weight/volume).

Data set [2] can be described thus: Dissolution of charge-transporting agent in tetrahydrofuran solution of polycarbonate resin for charge-transporting layer. The following applies: 12.2% tetrahydrofuran solution of polycarbonate resin (Yupilon Z), ultrasonic wave. It is filed as physicochemical. On the procedure:
The p-terphenyl compound mixture was completely dissolved by propagating an ultrasonic wave thereto. This solution was applied to the charge-generating layer with a wire-wound bar and dried at 110° C. and ordinary pressure for […] to form a charge-transporting layer having a thickness of 20 μm. Thus, Photoreceptor No. 1 was produced.
Photoreceptor No. 6 was produced in the same manner as in Photoreceptor Example 1, except that the p-terphenyl compound singly synthesized as Compound No. 6 was used in place of the charge-transporting agent used in Photoreceptor Example 1.
Photoreceptor No. 7 was produced in the same manner as in Photoreceptor Example 1, except that the p-terphenyl compound singly synthesized as Compound No. 9 was used in place of the charge-transporting agent used in Photoreceptor Example 1.
The p-terphenyl compound mixture was completely dissolved by propagating an ultrasonic wave thereto. This solution was applied to the charge-generating layer with a wire-wound bar and dried at 110° C. and ordinary pressure for 30 minutes to form a charge-transporting layer having a thickness of 10 μm. Furthermore, a semitransparent metal electrode was formed on the charge-transporting layer by vapor deposition to produce Photoreceptor No. 8. […]

With `Cc1ccc(N(c2ccccc2)c2ccc(-c3ccc(-c4ccc(N(c5ccccc5)c5ccc(C)cc5)cc4)cc3)cc2)cc1` [Compound No. 1, 4,4′-bis(4-methyldiphenylamino)-p-terphenyl], the Solubility in tetrahydrofuran in data set [1] is 25.0%.
The molecule `Cc1ccc(N(c2ccccc2)c2ccc(-c3ccc(-c4ccc(N(c5ccccc5)c5ccc(C)cc5C)cc4)cc3)cc2)c(C)c1` [Compound No. 4, 4,4′-bis(2,4-dimethyldiphenylamino)-p-terphenyl] displayed a Solubility in tetrahydrofuran in data set [1] of 10.0%.
Regarding `Cc1ccc(N(c2ccc(C)cc2)c2ccc(-c3ccc(-c4ccc(N(c5ccc(C)cc5)c5ccc(C)cc5)cc4)cc3)cc2)cc1` [Compound No. 6, 4,4′-bis(4,4′-dimethyldiphenylamino)-p-terphenyl], the “dissolution of charge-transporting agent in coating solution” value in data set [2] is given as “did not dissolve”. This molecule showed a Solubility in tetrahydrofuran in data set [1] of 2.0%.
As for `c1ccc(N(c2ccccc2)c2ccc(-c3ccc(-c4ccc(N(c5ccccc5)c5ccccc5)cc4)cc3)cc2)cc1` [Compound No. 9, 4,4′-bis(diphenylamino)-p-terphenyl], the “dissolution of charge-transporting agent in coating solution” value in data set [2] is “did not dissolve”. In data set [1], this molecule registered a Solubility in tetrahydrofuran of 2.0%.
